Measured values taken from ChEMBL document CHEMBL5465560, “Selectivity Literature for EUbOPEN Chemogenomic Library” (2024).
Values belong to the compound of their own block, whether it stands above or below them.

Key:
[1] = target: CDK2/Cyclin A1 (Homo sapiens) (UniProt P24941+P78396); test: (§1) Selectivity interaction (LanthaScreen Eu Kinase Binding Assay) EUB0001632a CDK2; type: protein-complex assay; details: at 10 µM
[2] = target: CDK2/Cyclin O (Homo sapiens) (UniProt P24941+P22674); test: as §1; type: protein-complex assay; details: at 10 µM
[3] = target: Cyclin-dependent kinase 2/cyclin E1 (Homo sapiens) (UniProt P24864+P24941); test: as §1; type: protein-complex assay; details: at 10 µM
[4] = target: T1, Tyrosine-protein kinase TXK (Homo sapiens) (UniProt P42681); test: Selectivity interaction (Kinase panel (Z-LYTE Assay)) EUB0001632a TXK; details: at 10 µM
T1 sequence (whole entry): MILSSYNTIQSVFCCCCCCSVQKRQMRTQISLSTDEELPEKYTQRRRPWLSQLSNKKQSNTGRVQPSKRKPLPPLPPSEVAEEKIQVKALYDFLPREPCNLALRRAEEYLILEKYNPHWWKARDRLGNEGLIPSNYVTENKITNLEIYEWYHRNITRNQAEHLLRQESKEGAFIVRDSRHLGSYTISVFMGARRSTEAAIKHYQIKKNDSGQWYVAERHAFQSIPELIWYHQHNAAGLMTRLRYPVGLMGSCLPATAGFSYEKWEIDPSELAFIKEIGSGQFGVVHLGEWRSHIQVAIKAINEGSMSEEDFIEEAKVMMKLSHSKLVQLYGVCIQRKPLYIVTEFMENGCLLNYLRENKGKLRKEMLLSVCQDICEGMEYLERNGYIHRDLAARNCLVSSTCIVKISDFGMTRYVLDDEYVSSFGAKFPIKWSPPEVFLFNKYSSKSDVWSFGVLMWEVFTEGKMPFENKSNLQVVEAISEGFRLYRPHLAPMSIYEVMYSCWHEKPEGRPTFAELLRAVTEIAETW

[5] = target: Mitogen-activated protein kinase 1 (Homo sapiens, UniProt P28482); test: Selectivity interaction (KinomeScan (DiscoverX)) EUB0000666a MAPK1; details: at 10 µM
[6] = target: Dual specificity tyrosine-phosphorylation-regulated kinase 1B (Homo sapiens, UniProt Q9Y463); test: Selectivity interaction (SelectScreen profiling (Invitrogen)) EUB0000607a DYRK1B; details: at 2 µM
[7] = target: T2, Serine/threonine-protein kinase BRSK1 (Homo sapiens) (UniProt Q8TDC3); test: Selectivity interaction (KinomeScan (DiscoverX)) EUB0000655a BRSK1; details: at 10 µM
T2 sequence (whole entry): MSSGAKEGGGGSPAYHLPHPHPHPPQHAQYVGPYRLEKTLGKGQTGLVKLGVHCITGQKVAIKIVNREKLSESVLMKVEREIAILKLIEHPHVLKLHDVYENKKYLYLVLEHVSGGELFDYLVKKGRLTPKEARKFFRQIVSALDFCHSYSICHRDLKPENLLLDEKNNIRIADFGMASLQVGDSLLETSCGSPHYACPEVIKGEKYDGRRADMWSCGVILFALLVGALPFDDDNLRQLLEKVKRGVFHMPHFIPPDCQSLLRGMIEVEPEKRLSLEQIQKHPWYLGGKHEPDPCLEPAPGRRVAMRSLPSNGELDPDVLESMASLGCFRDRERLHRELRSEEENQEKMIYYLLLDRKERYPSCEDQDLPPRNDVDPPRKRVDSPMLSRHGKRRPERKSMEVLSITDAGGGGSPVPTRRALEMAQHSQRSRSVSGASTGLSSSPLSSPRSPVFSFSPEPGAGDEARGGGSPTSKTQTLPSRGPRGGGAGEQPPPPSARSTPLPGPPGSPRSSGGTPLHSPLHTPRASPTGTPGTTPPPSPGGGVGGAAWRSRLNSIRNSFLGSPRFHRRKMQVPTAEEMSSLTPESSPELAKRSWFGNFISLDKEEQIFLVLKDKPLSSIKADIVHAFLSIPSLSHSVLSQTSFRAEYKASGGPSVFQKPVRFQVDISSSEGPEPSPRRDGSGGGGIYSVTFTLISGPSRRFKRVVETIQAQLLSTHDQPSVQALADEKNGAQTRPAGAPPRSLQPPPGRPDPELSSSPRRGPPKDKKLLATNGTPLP

[8] = target: Phosphatidylinositol 4-phosphate 3-kinase C2 domain-containing subunit beta (Homo sapiens) (UniProt O00750); test: Selectivity interaction (KinomeScan (DiscoverX)) EUB0000045b PIK3C2B
[9] = target: Ribosomal protein S6 kinase alpha-1 (Homo sapiens, UniProt Q15418); test: Selectivity interaction (KinomeScan (DiscoverX)) EUB0000045b RPS6KA1
[10] = target: T3, Alpha-1A adrenergic receptor (Homo sapiens) (UniProt P35348); test: Selectivity interaction (GPCR panel (PDSP screen)) EUB0001079a ADRA1A; details: at 10 µM
T3 sequence (whole entry): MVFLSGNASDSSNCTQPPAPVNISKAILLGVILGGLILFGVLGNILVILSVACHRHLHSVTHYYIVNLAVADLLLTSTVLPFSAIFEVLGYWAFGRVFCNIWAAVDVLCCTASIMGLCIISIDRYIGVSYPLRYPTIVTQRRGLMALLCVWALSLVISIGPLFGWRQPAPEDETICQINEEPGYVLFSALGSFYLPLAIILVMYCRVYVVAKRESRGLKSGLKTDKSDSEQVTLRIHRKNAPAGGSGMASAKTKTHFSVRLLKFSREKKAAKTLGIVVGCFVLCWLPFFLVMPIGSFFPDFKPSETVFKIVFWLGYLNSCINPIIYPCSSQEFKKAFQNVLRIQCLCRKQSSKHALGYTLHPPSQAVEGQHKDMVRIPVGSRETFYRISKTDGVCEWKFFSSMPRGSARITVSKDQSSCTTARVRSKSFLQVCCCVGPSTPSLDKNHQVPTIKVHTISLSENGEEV

[11] = target: Myosin light chain kinase, smooth muscle (Homo sapiens, UniProt Q15746); test: Selectivity interaction (KinomeScan (DiscoverX)) EUB0000092b MYLK; details: at 10 µM
[12] = target: T4, Serine/threonine-protein kinase STK11 (Homo sapiens) (UniProt Q15831); test: Selectivity interaction (KinomeScan (DiscoverX)) EUB0000618a STK11; details: at 10 µM
T4 sequence (whole entry): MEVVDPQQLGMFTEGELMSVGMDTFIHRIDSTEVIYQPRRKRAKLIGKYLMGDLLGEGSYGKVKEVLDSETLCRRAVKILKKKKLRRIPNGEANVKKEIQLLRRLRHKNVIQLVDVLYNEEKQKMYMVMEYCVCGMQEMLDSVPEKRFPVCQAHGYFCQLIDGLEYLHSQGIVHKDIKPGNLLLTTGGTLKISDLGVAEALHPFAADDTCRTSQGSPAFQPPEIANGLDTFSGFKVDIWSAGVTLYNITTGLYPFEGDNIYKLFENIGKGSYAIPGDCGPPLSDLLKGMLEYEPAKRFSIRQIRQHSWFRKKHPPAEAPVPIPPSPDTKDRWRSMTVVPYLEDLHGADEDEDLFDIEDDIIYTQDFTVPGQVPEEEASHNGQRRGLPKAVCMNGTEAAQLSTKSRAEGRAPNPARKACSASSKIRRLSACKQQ

[13] = target: Dual specificity mitogen-activated protein kinase kinase 1 (Homo sapiens, UniProt Q02750); test: Selectivity interaction (KinomeScan (DiscoverX)) EUB0001619a MAP2K1; details: at 1 µM
Dual specificity mitogen-activated protein kinase kinase 1, sequence (Q02750 whole entry): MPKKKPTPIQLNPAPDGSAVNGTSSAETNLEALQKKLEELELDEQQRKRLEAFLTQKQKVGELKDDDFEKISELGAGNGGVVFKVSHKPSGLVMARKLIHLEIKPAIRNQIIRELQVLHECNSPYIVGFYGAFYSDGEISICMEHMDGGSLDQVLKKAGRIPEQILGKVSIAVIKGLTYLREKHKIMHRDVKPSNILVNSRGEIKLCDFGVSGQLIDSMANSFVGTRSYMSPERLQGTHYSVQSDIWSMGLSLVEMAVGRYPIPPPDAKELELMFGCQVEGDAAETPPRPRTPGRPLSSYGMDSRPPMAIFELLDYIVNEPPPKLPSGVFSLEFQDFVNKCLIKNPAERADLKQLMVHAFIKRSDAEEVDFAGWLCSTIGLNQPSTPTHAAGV

Phosphatidylinositol 4-phosphate 3-kinase C2 domain-containing subunit beta (Homo sapiens), sequence (O00750 whole entry, the tested form may be a part): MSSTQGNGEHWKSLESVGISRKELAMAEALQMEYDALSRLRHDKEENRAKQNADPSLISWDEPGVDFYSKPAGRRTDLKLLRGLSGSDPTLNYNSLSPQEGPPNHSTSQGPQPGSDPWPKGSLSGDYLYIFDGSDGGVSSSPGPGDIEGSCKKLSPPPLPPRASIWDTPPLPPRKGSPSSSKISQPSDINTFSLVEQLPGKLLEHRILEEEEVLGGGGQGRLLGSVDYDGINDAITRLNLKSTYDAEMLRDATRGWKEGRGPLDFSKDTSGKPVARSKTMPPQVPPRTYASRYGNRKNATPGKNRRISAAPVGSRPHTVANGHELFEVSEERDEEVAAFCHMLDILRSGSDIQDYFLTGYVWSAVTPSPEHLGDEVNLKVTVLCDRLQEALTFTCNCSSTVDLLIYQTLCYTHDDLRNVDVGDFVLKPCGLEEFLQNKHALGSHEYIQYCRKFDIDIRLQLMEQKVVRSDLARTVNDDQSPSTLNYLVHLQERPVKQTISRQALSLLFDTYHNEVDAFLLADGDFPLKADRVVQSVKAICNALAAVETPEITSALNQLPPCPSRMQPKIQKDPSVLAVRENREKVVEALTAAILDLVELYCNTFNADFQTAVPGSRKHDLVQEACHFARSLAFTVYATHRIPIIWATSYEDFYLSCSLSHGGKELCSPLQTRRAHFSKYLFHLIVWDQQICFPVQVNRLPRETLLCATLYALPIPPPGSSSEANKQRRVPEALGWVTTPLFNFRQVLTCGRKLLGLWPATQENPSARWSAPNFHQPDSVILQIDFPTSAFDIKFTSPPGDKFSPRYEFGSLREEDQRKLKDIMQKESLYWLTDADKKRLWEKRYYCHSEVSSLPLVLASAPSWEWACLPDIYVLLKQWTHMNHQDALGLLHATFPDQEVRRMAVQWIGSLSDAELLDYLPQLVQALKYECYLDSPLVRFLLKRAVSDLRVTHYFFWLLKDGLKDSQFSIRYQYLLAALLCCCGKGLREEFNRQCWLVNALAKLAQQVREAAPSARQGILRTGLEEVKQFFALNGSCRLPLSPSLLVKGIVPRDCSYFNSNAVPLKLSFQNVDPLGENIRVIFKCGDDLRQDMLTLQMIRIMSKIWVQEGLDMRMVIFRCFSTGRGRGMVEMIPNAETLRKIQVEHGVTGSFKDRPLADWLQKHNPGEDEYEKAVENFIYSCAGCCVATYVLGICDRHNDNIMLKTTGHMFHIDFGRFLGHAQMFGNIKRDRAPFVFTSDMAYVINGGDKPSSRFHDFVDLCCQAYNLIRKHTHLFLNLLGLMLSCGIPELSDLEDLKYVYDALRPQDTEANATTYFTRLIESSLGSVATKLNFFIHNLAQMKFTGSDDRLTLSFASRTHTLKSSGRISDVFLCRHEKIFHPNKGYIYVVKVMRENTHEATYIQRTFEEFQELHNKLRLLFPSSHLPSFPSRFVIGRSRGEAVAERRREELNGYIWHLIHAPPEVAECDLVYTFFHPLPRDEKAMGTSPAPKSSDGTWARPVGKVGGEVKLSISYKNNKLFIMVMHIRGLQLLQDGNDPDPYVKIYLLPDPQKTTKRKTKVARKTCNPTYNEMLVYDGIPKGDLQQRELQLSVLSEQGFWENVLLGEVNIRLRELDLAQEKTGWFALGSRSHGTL
Ribosomal protein S6 kinase alpha-1, sequence (Q15418 whole entry): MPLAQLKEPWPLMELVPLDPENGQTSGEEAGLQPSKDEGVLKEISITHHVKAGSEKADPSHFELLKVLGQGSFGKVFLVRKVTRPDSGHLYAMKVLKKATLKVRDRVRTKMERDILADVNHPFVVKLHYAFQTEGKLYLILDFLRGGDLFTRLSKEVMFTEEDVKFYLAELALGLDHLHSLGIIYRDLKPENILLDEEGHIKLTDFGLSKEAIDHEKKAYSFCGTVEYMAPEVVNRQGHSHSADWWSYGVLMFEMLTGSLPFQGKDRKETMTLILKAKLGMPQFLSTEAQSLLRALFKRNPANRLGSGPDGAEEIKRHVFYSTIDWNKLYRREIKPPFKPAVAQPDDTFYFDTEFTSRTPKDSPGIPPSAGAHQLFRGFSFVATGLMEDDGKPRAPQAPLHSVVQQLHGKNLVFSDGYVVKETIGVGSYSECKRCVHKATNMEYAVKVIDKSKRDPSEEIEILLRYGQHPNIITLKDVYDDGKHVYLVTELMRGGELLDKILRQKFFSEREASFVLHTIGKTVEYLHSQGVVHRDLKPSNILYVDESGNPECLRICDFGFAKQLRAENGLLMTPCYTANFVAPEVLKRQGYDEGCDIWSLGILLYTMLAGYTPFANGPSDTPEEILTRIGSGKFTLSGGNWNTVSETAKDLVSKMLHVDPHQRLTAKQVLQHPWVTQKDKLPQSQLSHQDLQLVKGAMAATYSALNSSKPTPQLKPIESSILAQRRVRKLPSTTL
Dual specificity tyrosine-phosphorylation-regulated kinase 1B, sequence (Q9Y463 whole entry, looked up): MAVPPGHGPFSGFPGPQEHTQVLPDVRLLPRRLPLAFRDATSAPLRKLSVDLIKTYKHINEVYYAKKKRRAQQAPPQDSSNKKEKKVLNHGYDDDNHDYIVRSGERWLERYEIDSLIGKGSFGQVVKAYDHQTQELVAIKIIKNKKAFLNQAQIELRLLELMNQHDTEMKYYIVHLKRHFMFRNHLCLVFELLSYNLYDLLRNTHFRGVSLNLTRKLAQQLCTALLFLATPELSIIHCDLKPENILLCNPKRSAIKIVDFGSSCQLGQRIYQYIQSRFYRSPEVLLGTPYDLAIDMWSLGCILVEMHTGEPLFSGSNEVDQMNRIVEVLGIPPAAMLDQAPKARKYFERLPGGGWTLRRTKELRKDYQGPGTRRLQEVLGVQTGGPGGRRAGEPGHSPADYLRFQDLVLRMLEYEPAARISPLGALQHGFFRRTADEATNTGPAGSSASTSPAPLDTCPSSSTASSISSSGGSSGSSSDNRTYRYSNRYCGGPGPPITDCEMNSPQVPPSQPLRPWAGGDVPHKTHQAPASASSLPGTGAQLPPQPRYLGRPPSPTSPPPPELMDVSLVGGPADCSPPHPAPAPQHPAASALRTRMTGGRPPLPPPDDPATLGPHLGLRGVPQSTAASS
Mitogen-activated protein kinase 1, sequence (P28482 whole entry): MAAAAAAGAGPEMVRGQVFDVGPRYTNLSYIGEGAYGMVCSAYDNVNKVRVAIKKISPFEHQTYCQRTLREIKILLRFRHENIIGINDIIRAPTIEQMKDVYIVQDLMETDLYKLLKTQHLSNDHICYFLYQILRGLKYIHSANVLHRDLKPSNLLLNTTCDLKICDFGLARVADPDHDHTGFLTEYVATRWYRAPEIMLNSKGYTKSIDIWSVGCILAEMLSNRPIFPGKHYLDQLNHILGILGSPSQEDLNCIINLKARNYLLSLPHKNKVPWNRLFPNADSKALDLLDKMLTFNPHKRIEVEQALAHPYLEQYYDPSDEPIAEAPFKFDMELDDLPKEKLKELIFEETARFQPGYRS

% of inhibition [1]: -33.3% | % of inhibition [2]: -162% | % of inhibition [3]: -64.3% | % of control [4]: 12.2%
SMILES: Cn1cc(-n2cnc3c(NCc4nc5cc(Cl)c(Cl)cc5[nH]4)nc(N4CCOCC4)nc32)cn1

SMILES: O=C(NOC[C@H](O)CO)c1ccc(F)c(F)c1Nc1ccc(I)cc1F
% of control [5]: 100%

SMILES: CNC(=O)Nc1ccc(-c2nc(N3CC4CCC(C3)O4)c3cnn(C4CCC5(CC4)OCCO5)c3n2)cc1
% of inhibition [6]: 2%

SMILES: CN(C)CCOc1ccc(-c2nc(-c3ccncc3)c(-c3ccc4c(c3)CC/C4=N\O)[nH]2)cc1
% of control [7]: 76%

SMILES: C=CC(=O)Nc1cc(-n2c(=O)ccc3cnc4ccc(-c5ccc(NS(C)(=O)=O)cc5)cc4c32)ccc1C
% of control ([8]; at 1 µM): 100% | % of control ([8]; at 10 µM): 40% | % of control ([9]; at 1 µM): 76% | % of control ([9]; at 10 µM): 67%

SMILES: Nc1cnc(N2CCc3cc(S(=O)(=O)Nc4c(F)cc(Cl)cc4F)cc(N4CCCC4=O)c32)nc1 [TP-020n]
% of inhibition [10]: -15.7%

SMILES: CCC(=O)N1CCN(c2ccc(-n3c(=O)ccc4cnc5ccc(-c6cnc7ccccc7c6)cc5c43)cc2C(F)(F)F)CC1
% of control [11]: 94%

SMILES: O[C@H]1CC[C@H](Nc2ncc3nc(Nc4c(F)cc(F)cc4F)n([C@H]4CCOC4)c3n2)CC1
% of control [12]: 100%

SMILES: N#Cc1cccc(-c2c[nH]c3ncnc(N4CCOCC4)c23)c1
% of control [13]: 13%
